Assay results reported in US10428071B2, “Carboline derivative serving as bromodomain inhibitor” (NINGBO WENDA PHARMA TECHNOLOY LTD., priority 2016, dated 2019).

What was measured:
H211 cell line = assay: Cell activity detection, Alamar-Blue, H211; format: cell-based; conditions: Homo sapiens, NCI-H211, 72 h incubation
Procedure: (§1) H211 and H187 cell lines were purchased from ATCC and tested in accordance with the Alamar-Blue test kit instructions. The drugs were dissolved in 50 mM stock solution with DMSO and stored in a freezer at −20° C. The test drug stock solution was serially diluted with DMSO graded in a ratio of 1:3. Then DMSO diluted drug was serially diluted into a drug solution in 10× final concentration with cell complete culture medium. The 96-well cell culture plate was removed from the incubator, and 10 μl of culture medium containing a series of different concentrations of drug (10× final concentration) was added to a 96-well plate, and incubated at 37° C. for 72 h in CO2 incubator. The inhibition rate was plotted using GraphPad Prism 5.0 and MATILAB software by a non-linear regression method to obtain a series of dose-response curves from which the IC50 of the test sample was obtained, Table 2.

H187 cell line = assay: Cell activity detection, Alamar-Blue, H187; format: cell-based; conditions: Homo sapiens, NCI-H187, 72 h incubation
Procedure: as §1

[1] = target: T1, BRD4 (BD1+BD2) bromodomain protein (Homo sapiens, UniProt O60885); assay: TR-FRET BRD4 activity assay (Cayman kit); format: binding; conditions: room temperature 2 hours
T1 construct: BRD4 (BD1+BD2) bromodomain protein; purchased Cayman
Procedure: Detection of TR-FRET BRD4 Activity:
The BRD4 activity assay was performed according to the TR-FRET method in the Cayman kit. Dilute 3×BRD TR-FRET Assay Buffer 1 with ultrapure water to 1×BRD TR-FRET Assay Buffer for further use. 1×BRD TR-FRET Assay Buffer was used to dilute Tb-labeled donor and dye-labeled acceptor in 100-fold. 5 μl of diluted Tb-labeled donor and dye-labeled acceptor were added respectively to the sample well, negative control well and positive control well. The configured 1×BRD TR-FRET Assay Buffer was used to formulate a 10% DMSO solution (excessive DMSO concentration would affect the reaction, and the final concentration of DMSO was controlled at 1%), then test compounds are diluted with 10% DMSO solution to give the compound's initial concentrations of 1 μM and 100 nM, IC50 test was started from 10 μM or 100 μM, diluted in 3-fold to give 8 or 10 concentration points. In addition to the control wells, 2 μl of the diluted test compound solution was added to the wells used, and 2 μl of the previously prepared 10% DMSO solution was added to the control wells. The BET Bromodomain Ligand and Non-acetylated Ligand 1 were respectively diluted in 40 fold with 1×BRD TR-FRET Assay Buffer. 5 μl of diluted BET Bromodomain Ligand was added to sample wells and positive control wells, and 5 μl of diluted non-acetylated ligand 1 was added into the negative control wells. 1×BRD TR-FRET Assay Buffer was used to dilute BRD4 (BD1+BD2) bromodomain protein to 6 ng/μl (18 ng/well), and 3 μl of diluted BRD4 (BD1+BD2) bromodomain protein was added to each well. The plate was sealed and mixed well. The reaction was performed at room temperature for 2 hours, and then fluorescence signals (320 nm stimulation, 665 nm, 615 nm emission) were detected with the ENVISION (Perkinelmer) instrument. The inhibition rate was calculated for each well by positive control wells and negative control wells, and average value was calculated for multiple wells. The results were plotted with Software PRISM 5.0 to fit the half inhibitory activity (IC50) for each test compound, Table 1.

MDA-MB-231 cell line = assay: Cell activity detection, CCK-8, MDA-MB-231; format: cell-based; conditions: Homo sapiens, CCK-8, 72 hours incubation
Procedure: MDA-MB-231 cell line was purchased from Shanghai Cell Resource Center of the Chinese Academy of Sciences, and was performed according to the method in the kit of CCK-8. The cells in the logarithmic growth phase were collected, counted, and the cells were re-suspended in complete medium to adjust the cell concentration to a suitable concentration (determined according to cell density optimization test results), inoculated in 96-well plates, and each well was added with 100 μl of cell suspension. Cells were incubated at 37° C., in a 100% relative humidity and 5% CO2 incubator for 24 hours. The compound was diluted to the appropriate effective concentration determined with medium and the cells were added by 25 μl/well. The final concentration of the compound was diluted to from 1 μM to 0 μM graded in three-fold dilution to give 10 concentration points. The cells were incubated at 37° C., in a 100% relative humidity and 5% CO2 incubator for 72 hours. 1/10 volume of CCK-8 was added directly to the cell culture medium and incubated in a 37° C. incubator for 2-4 hours. The absorbance at 450 nm was determined on a SpectraMax M5 Microplate Reader after gentle shaking. Absorbance at 650 nm was taken as the reference. The IC50 curve fitting was performed using soft Graphpad Prism 5 and the IC50 value was calculated.

SMILES | IC50 (H211 cell line) [nM] | IC50 (H187 cell line) [nM] | IC50 [1] [nM] | IC50 (MDA-MB-231 cell line) [nM]
Cc1nnn(C)c1-c1cnc2c3cc4c(cc3n([C@H](c3ccccc3)C3CCOCC3)c2c1)C(=O)N(C)C4 [Compound 1] | 7.2 | 21 | 3.6 | 
Cc1nnn(C)c1-c1cnc2c3cc4c(cc3n([C@H](c3ccccc3)C3CCOCC3)c2c1)CN(C)C4=O [Compound 2] | 8.5 | 19 | 2.2 | 
Cc1nnn(C)c1-c1cnc2c3c4c(ccc3n([C@H](c3ccccc3)C3CCOCC3)c2c1)C(=O)N(C)C4 [Compound 3] | 5.2 | 35 | 1.9 | 
Cc1nnn(C)c1-c1cnc2c3cc4c(cnn4C)cc3n([C@H](c3ccccc3)C3CCOCC3)c2c1 [Compound 4] | 11.2 | 37 | 4.6 | 
Cc1nnn(C)c1-c1cnc2c3cc4cnn(C)c4cc3n([C@H](c3ccccc3)C3CCOCC3)c2c1 [Compound 5] | 29.5 | 35 | 3.8 | 
Cc1nnn(C)c1-c1cnc2c3c4cnn(C)c4ccc3n([C@H](c3ccccc3)C3CCOCC3)c2c1 [Compound 6] | 2 | 5.5 | 1 | 1.6
Cc1nnn(C)c1-c1cnc2c3c4c(ccc3n([C@H](c3ccccc3)C3CCOCC3)c2c1)cnn4C [Compound 7] | 3.5 | 6.5 | 5.2 | 4.6
Cc1nnn(C)c1-c1cnc2c3c4cnn(C)c4c(F)cc3n([C@H](c3ccccc3)C3CCOCC3)c2c1 [Compound 8] | 4.2 | 6.5 | 2.6 | 3.2
Cc1nnn(C)c1-c1cnc2c3c4ccn(C)c4ccc3n([C@H](c3ccccc3)C3CCOCC3)c2c1 [Compound 9] | 6.7 | 7 | 3.5 | 
Cc1nnn(C)c1-c1cnc2c3c4cc[nH]c4ccc3n([C@H](c3ccccc3)C3CCOCC3)c2c1 [Compound 10] | 32 | 8.5 | 1.5 | 8.1
Cc1nnn(C)c1-c1cnc2c3c4cn[nH]c4ccc3n([C@H](c3ccccc3)C3CCOCC3)c2c1 [Compound 11] | 4.2 | 5.5 | 1 | 3.7
Cc1nnn(C)c1-c1cnc2c3c4cccnc4ccc3n([C@H](c3ccccc3)C3CCOCC3)c2c1 [Compound 12] | 12 | 7.5 | 3.2 | 
[2H]C([2H])([2H])c1nnn(C)c1-c1cnc2c3c4cnn(C)c4ccc3n([C@H](c3ccccc3)C3CCOCC3)c2c1 [Compound 13] | 2 | 5.5 | 1 | 1.8
[2H]C([2H])([2H])c1nnn(C)c1-c1cnc2c3c4cn[nH]c4ccc3n([C@H](c3ccccc3)C3CCOCC3)c2c1 [Compound 14] | 4 | 5.5 | 1 | 3.5
